Measured values taken from PubChem BioAssay AID388 (SGCOxCompounds, 2006).

Target: 15-hydroxyprostaglandin dehydrogenase [NAD(+)] (Homo sapiens) (UniProt P15428)
Test: HPGD binders by thermal shift, biophysical, DSF, SYPRO orange, purified protein (AID 388)
Conditions: at 10 µM, buffer 10 mM HEPES, pH 7.5, NaCl 150 mM, hits give high values

Sequence of 15-hydroxyprostaglandin dehydrogenase [NAD(+)] (Homo sapiens) (P15428 whole entry, looked up): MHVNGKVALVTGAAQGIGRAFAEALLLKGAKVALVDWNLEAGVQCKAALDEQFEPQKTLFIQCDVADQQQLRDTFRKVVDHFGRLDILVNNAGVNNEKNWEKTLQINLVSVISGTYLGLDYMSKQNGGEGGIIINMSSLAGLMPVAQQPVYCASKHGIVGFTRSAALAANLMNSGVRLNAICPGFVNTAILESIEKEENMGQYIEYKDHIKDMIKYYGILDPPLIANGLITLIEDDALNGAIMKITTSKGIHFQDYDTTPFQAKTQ

Row | SMILES | Tm shift [Celsius] | Tm shift (NADH 40 µM) [Celsius]
1 | C[C@@]1(c2ccc(O)cc2)CC(=O)c2c(O)cc(O)cc2O1 | 2.25 | 
2 | CN(CCOc1ccc(CC2SC(=O)NC2=O)cc1)c1ccccn1 (stereo unspecified) |  | 2.5
3 | O=c1c(-c2ccc(O)cc2)coc2cc(O)cc(O)c12 | 2.12 | 
4 | Cc1c(O)cc(O)c2c1OC(c1ccc(O)c(O)c1)C(=O)C2=O (stereo unspecified) | 2.5 | 
5 | CCc1ccc(CCOc2ccc(CC3SC(=O)CC3=O)cc2)nc1 (stereo unspecified) | 2.28 | 
6 | O=C(O)c1cccnc1Nc1cccc(C(F)(F)F)c1 | 2.1 | 
7 | O=c1cc(-c2ccc(O)c(O)c2)oc2cc(O)cc(O)c12 | 2.19 | 
8 | CC1(C)[C@@H](OC(=O)CCC(=O)O)CC[C@]2(C)[C@H]3C(=O)C=C4[C@@H]5C[C@@](C)(C(=O)O)CC[C@]5(C)CC[C@@]4(C)[C@]3(C)CC[C@@H]12 | 2.35 | 
9 | CC1=CC(=O)C=C(C)C1=O | 6.05 | 
10 | COc1ccc2c(c1)c(CC(=O)O)c(C)n2C(=O)c1ccc(Cl)cc1 | 2.1 | 
11 | CCc1nnc(NS(=O)(=O)c2ccc(NC(=O)/C=C/c3ccc(F)cc3)cc2)s1 | 2.9 | 
12 | O=C1NC(=O)c2c1c1c3ccccc3[nH]c1c1[nH]c3cc(Br)ccc3c21 | 2.11 | 
13 | CCc1nnc(NS(=O)(=O)c2ccc(NC(=O)c3ccc(Cl)cc3Cl)cc2)s1 | 2.2 | 
14 | O=C1CC(c2ccc(O)cc2)Oc2cc(O)cc(O)c21 (stereo unspecified) | 3.1 | 
15 | O=c1cc(-c2ccccc2)oc2cc(O)c(O)c(O)c12 | 2.9 | 
16 | COc1cc([C@@H]2Oc3cc([C@@H]4Oc5cc(O)cc(O)c5C(=O)[C@H]4C)ccc3O[C@H]2CO)ccc1O | 2.4 | 
